# Laboratory results as given in publication PMC7613620, “Reaction hijacking of tyrosine tRNA synthetase as a whole-of-life-cycle antimalarial strategy” (Science (New York, N.Y.), 2022).
# Experiments:
# in vivo = conditions: male, Sprague-Dawley, rat
# Procedure: 625 of 50 mg/kg of compound on day 3 post-infection and measuring the effect on blood parasitemia by
# 626 microscopic analysis of Giemsa-stained blood smears (on days 3, 4, 5, 6 and 7 post-infection). Mice were
# 630 Human biological samples were sourced ethically; and their research use was in accord with the terms of
# 631 the informed consent. All animal studies were ethically reviewed and carried out in accredited facilities in
# 632 accordance with the relevant country’s directives and the institution’s Policy on the Care, Welfare and
# 633 Treatment of Animals.
# 635 Plasma exposure in infected mouse model
# 636 Compound was administered orally to two mice at 25 mg/kg on days 3, 4, 5, 6 after infection. On day 3,
# 637 blood samples (20 μL) were obtained at time points up to 24 hours after the first administration. Protein was
# 638 precipitated with acetonitrile and the remaining compound was assessed by LC-MS/MS in the selected reaction
# 641 Rat pharmacokinetics (PK) analyses
# 642 Sprague-Dawley rats (11 weeks old) were sourced from Hilltop Lab Animals, Inc (Scottdale, Pennsylvania,
# 643 USA). […]
# 648 0.5% formic acid in methanol and the supernatants were analysed by positive ion electrospray LC-MS for
# 649 the administered compound. Non-compartmental pharmacokinetic parameters were calculated from […]
# 660 IGM Genomics Center on the Illumina HiSeq 2500 in RapidRun mode to generate 100bp paired-end reads.
# [1] = tested on: P. falciparum female gametes; test: Dual gamete formation assay (female); format: cell-based; conditions: Plasmodium falciparum
# Procedure: 604 Activity against transmissible stages of P. falciparum
# 605 Activity against male gametes was assessed using the dual gamete formation assay (PfDGFA)(32).
# 606 Compounds were incubated with mature stage V gametocytes ([…], kind gift from Professor Chris Janse
# 607 at Leiden University Medical Center (LUMC), the Netherlands) for 48 hours in 384 well plates before
# 608 gamete formation was triggered by a drop in temperature and addition of xanthurenic acid. Male gamete
# 609 exflagellation was recorded and quantified by automated microscopy. The ability of female gametes to
# 611 Multiple data sets using different gametocyte cultures were collected on each of two separate days.
# 613 Activity against exoerythrocytic stages
# 614 Primary human hepatocytes (H1500.H15B+ Lot No. HC10-10 Cryopreserved human hepatocytes)
# 615 were cultured for 2 days and then overlaid with P. falciparum NF54 sporozoites and compounds.
# 616 Supernatant was refreshed daily with fresh compounds.
# P. falciparum Dd2 = test: 72-h sensitivity of wildtype Dd2 parent line; format: cell-based; conditions: Plasmodium falciparum, 72-h exposure
# Procedure: 700 the drug plate. Lowest drug treatment and a lethal dose of chloroquine (200 nM) served as reference
# 701 controls. Growth inhibition was analysed after 72 h using the Renilla-Glo(R) Luciferase Assay System (ref
# 702 no E2750 Promega) and the GloMax® Discover Multimode Microplate Reader (Promega), and IC50 values
# 703 were obtained from corrected dose-response curves using GraphPad Prism (version 8; GraphPad Software). […]
# 729 Cam 3.II_Rev (25) trophozoite-infected RBCs (25-30 h p.i.) were incubated with inhibitor for 3 h at 10%
# 730 hematocrit and 5% parasitemia. The RBC pellet was washed 3 x in PBS + cOmplete. Cells were centrifuged
# 731 at 380 x g for 5 min and the pelleted cells lysed by resuspension in PBS + 0.05% saponin for 5 min on ice.
# HsYRS = molecular target: T1, HsYRS (Homo sapiens, UniProt P54577); test: Differential scanning fluorimetry, HsYRS; format: binding; conditions: in the presence of ML901 plus substrates
# T1 construct: made in house; host or cells: E. coli BL21(DE3), pET-11a
# T1 sequence (P54577 1-364): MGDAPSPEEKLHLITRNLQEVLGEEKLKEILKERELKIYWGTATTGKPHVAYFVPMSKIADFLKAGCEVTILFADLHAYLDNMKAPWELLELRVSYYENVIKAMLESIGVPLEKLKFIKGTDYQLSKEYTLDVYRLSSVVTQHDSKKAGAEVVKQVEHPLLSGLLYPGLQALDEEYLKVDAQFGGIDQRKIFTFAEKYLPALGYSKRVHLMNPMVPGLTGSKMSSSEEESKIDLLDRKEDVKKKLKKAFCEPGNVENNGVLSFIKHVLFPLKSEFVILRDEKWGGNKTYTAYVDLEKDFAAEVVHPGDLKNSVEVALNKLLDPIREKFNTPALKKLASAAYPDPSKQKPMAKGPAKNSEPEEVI
# Procedure: This DNA template and its complementary strand were custom-synthesized by Sigma-
# 810 (HiScribe™ T7 Quick High Yield RNA Synthesis Kit, NEB). On the following day, the reaction mixture
# 820 was sealed and analysed using StepOnePlus Real-Time PCR system (Applied Biosystems). The samples
# The thermal unfolding curve was plotted
# The melting temperature (Tm), defined as the
# Reactions were conducted in 50 mM Tris-
# Reactions were conducted in 50 mM Tris-HCL, pH 7.6,
smiles,measurement,setting,value
Nc1ncnc2c1c(OC(F)F)nn2[C@@H]1O[C@H](COS(N)(=O)=O)[C@@H](O)[C@H]1O [ML901],Vd,"in vivo; iv, 1 mg/kg, Vss",4.89 L/kg
same,Cmax,"in vivo; po, 10 mg/kg, p.o. Cmax",130 nM
same,IC50,[1]; 48 h incubation with stage V gametocytes,4700 ± 300 nM
same,inhibition at 25 µM,[1]; at 25 µM,81%
same,IC50,P. falciparum Dd2,2.2 ± 0.3 nM
same,thermal stabilization of HsYRS,HsYRS,not stabilized
